According to patent publication US5607953A, “Butenoic or propenoic acid derivative” (Eisai Co., Ltd., priority 1988, dated 1997):

Legend:
[1] = system: anesthetized thoracotomized dog; assay: Heart rate lowering and coronary bloodflow increasing effects upon anesthetized thoracotomized dog; type: in vivo; conditions: compounds of group (I), 0.3 mg/kg intravenous, anesthetized mongrel; for Coronary bloodflow (CBF): rate of increase in coronary bloodflow: left circumflex branch
Method: Heart Rate Lowering and Coronary Bloodflow Increasing Effects Upon Anesthetized Thoracotomized Dog
The chest of a grown-up mongrel was opened under enflurane inhalation anesthesia. The blood flow of the coronary artery was determined by setting a probe of an electromagnetic bloodflowmeter at its left circumflexbranch, while the heart rate was determined by triggering the wave form of the pressure in its left ventricle and counting it with a tachometer.
The intravenous administration of a test compound (in a dose of 0.3 mg per kg of the weight of the anesthetized mongrel) was carried out by using a catheter inserted into its femoral […].
The effect of increasing the bloodflow of the circumflex branch of the left coronary artery or the heart rate lowering effect was evaluated based on the difference between the bloodflow or the heart rate after the administration and that before the administration according to the following criteria.

[2] = Acute toxicity test (intravenous injection) using a mouse; conditions: in vivo
Text: The representative compounds of the present invention were examined by an ordinary acute toxicity test (intravenous injection) using a mouse to obtain the results shown in Table 4.

SMILES | Heart rate (HR): rate of reduction in heart rate [1] | Coronary bloodflow (CBF): rate of increase in coronary bloodflow [1] | LD50 [2]
CN(CCCNC(=O)C/C=C/c1ccc(-n2ccnc2)cc1)CCc1ccc2c(c1)OCO2 [Compound K, (E)-N-[3-((N'-(2-(3,4-Methylenedioxyphenyl)-ethyl)-N'-methyl)amino)propyl]-4-(4-(1H-imidazol-1-yl)phenyl)-3-butenamide] | ++ (11-20%) | + (1-100%) | –
COc1ccc(CCN(C)CCCNC(=O)C/C=C/c2ccc(-n3cnc(C)c3)cc2)cc1OC [Compound L, (E)-N-[3-((N'-(2-(3,4-Dimethoxyphenyl)ethyl)-N'-methyl)amino)propyl]-4-(4-(4-methyl-1H-imidazol-1-yl)phenyl)-3-butenamide] | + (1-10%) | + (1-100%) | 92 mg/kg
COc1ccc(CCN(C)CCCNC(=O)C/C=C/c2ccc(-n3cncn3)cc2)cc1OC [Compound M, (E)-N-[3-((N'-(2-(3,4-Dimethoxyphenyl)ethyl)-N'-methyl)amino)propyl]-4-(4-(1H-1,2,4-triazol-1-yl)phenyl)-3-butenamide] | + (1-10%) | + (1-100%) | 120 mg/kg
